According to US20230065577A1, “COMBINATIONS” (Recurium IP Holdings, LLC, priority 2019, published 2023):
Read-outs that look alike come from different tables or passages of the source.

Tests used:
Assay type in all cases: cell-based
MV4-11 cells = assay: CTG Assay (CellTiter-Glo Luminescent Cell Viability Assay), MV4-11; details: Homo sapiens
Protocol: (§1) Cell proliferation was measured using the CellTiter-Glo® Luminescent Cell Viability Assay. The assay involved the addition of a single reagent (CellTiter-Glo® Reagent) directly to cells cultured in serum-supplemented medium. DMS-53 (ATCC, CRL-2062), MV4-11 (ATCC, CRL-9591), MCF-7 (ATCC, HTB-22) and ZR-75-1 (ATCC, CRL-1500) cells were cultured according to ATCC recommendations and were seeded at 20,000 cells per well.
(§2) Each compound evaluated was prepared as a DMSO stock solution (10 mM). For DMS-53 and MV4-11 cell lines, Compounds 1 and 5a were tested in triplicate using the respective IC50 concentrations indicated in Table 2. The MCF-7 combination assay was performed in duplicate with a 10-point serial dilution curve (1:3 dilution) for Compounds 1 and 5a, and a 10-point serial dilution curve (1:5 dilution) when treated in combination. The highest compound concentration was 10 μM with a 0.1% final DMSO concentration. Plates were incubated at 37° C., 5% CO2 for 72 h and then equilibrated at room temperature for approximately 30 min. […] Luminescence (RLU (relative light unit)) was recorded using a SpectraMAX, M5e plate reader according to CellTiter-Glo protocol. Percent inhibition was calculated using the following formula: % inhibition=(RLU*100/(RLU of the cell background)). IC50 of each compound was calculated using GraphPad Prism by nonlinear regression analysis.

[1] = tested on: MCF-7 breast cancer cells; assay: CTG Assay (CellTiter-Glo Luminescent Cell Viability Assay), MCF-7 combination assay; details: Homo sapiens, MCF7, 72 h, 10-point dilution, top 10 μM
Protocol: as §1, §2

DMS-53 cells = assay: CTG Assay (CellTiter-Glo Luminescent Cell Viability Assay), DMS-53; details: Homo sapiens
Protocol: as §1, §2

[2] = tested on: ZR-75-1 breast cancer cells; assay: CTG Assay (CellTiter-Glo Luminescent Cell Viability Assay), ZR-75-1; details: Homo sapiens, 72 h
Protocol: as §1, §2

[3] = single agent, IC50 used as test concentration, read-out: Concentration (respective IC50 concentration)
[4] = read-out: Absolute IC50 Based on % Inhibition
[5] = read-out: Relative IC50 Based on % Inhibition

- IC50 (MV4-11 cells; [3]): 15 nM
- IC50 [1, 4]: 346 nM
- IC50 [1, 5]: 307 nM
- IC50 [2, 4]: 1770 nM
- IC50 [2, 5]: 1240 nM
SMILES: C=CCn1c(=O)c2cnc(Nc3ccc(N4CCN(C)CC4)cc3)nc2n1-c1cccc(C(C)(C)O)n1 [Compound 1]
- inhibition at 0.015 µM (MV4-11 cells; 15 nM, 72 h, triplicate): 37%
- inhibition at 0.65 µM (DMS-53 cells; 650 nM, 72 h, triplicate): 37%
- IC50 (DMS-53 cells; [3]): 650 nM
